Results from US9359196B2, “Antiproliferative compositions comprising curcumin analogs and methods of producing and using same” (The Board of Regents of the University of Oklahoma, priority 2009, dated 2016).
pIC50: −log10 of the molar value. One block for each compound: values may come before it.

Tests used:
[1] = tested on: lung adenocarcinoma cell line H441; test: Cell proliferation (hexosaminidase assay) in lung adenocarcinoma H441 cells, Example 1; format: cell-based, human; conditions: Homo sapiens, NCI-H441, 24 h of treatment, 1-100 μM tested, fitted plot, read-out: IC50 value
Experimental: Cell Proliferation Studies: In order to assess the anti-proliferative activity of the synthesized compounds, an in vitro cell culture system of lung adenocarcinoma cell line H441 was used. The cell detachment and anti-proliferative activity was measured as a decrease in hexosaminidase enzyme activity associated with remainder of the adhered cells. [Landegren, 1984] […] The concentration versus cell proliferation plots were analyzed by an exponential fit (Table 1). The results were compared with the anti-proliferative activity of compound 1.
Cell Culture and drug treatment: Human lung adenocarcinoma cell line NCI-H441 (ATCC Number: HTB-174) was obtained from the American Type Culture Collection (Manassas, Va.). H441 cells were maintained at 37° C. with 5% CO2 in McCoy's 5A Medium (Invitrogen, Carlsbad, Calif.) supplemented with 5% heat-inactivated fetal bovine serum (FBS). All media contained gentamicin at 50 μg/ml (GIBCO Laboratories, Grand Island, N.Y.). Other cells lines (PANC-1, MiaPaCa-2 and PC-3) were also similarly maintained, except that the cell culture medium was RPMI 1640 instead of McCoy's.
To evaluate the anti-proliferative activity of synthesized bis(2-fluorobenzylidene)-4-piperidone and its derivatives, the cells were seeded in 96-well flat-bottom tissue culture plates at a density of 10×10^3 cells per well. The cells were allowed to attach and grow overnight. The test compounds were solubilized in dimethyl sulfoxide (DMSO), filtered through 0.2 μm nylon filter and added to cells at 1, 10, 25 and 100 μM concentrations in culture medium supplemented with 5% FBS. The DMSO concentration was maintained at 0.1% per well. Control wells received equivalent volume of DMSO without any test compounds. The cells were allowed to remain in the treatment medium for 24, 48 and 72 hours.
Cell Proliferation: The total number of cells after the treatment period was estimated by the hexosaminidase assay. [Landegren, 1984] Briefly, the medium was removed and hexosaminidase substrate solution in citrate buffer pH 5 (7.5 mM), […] (Calbiochem, San Diego, Calif.) was added at 60 μl per well. The plate was incubated at 37° C. in 100% humidity for 30 minutes, before stopping the reaction with 90 μl of 50 mM glycine containing 5 mM of EDTA (pH 10.4). The absorbance was measured at 405 nm. The experiments were conducted in triplicate, and repeated at least twice. The data were analyzed as percent of control, where the control wells were treated with equivalent amounts of DMSO alone, and the analyzed data was presented as average±standard error of mean. The differences among mean values were deemed significant at p<0.05.
For IC50 calculations, a plot between the drug concentration and hexosaminidase activity was generated and the data was fitted either linearly or exponentially. The best fit was used for further processing of data.

[2] = tested on: H441 cells; test: Monodansylcadaverine fluorescence microscopy of autophagosomes in H441 cells; format: cell-based, human
Experimental: Monodansylcadaverine (MDC) is an autofluorescent marker for autophagic vacuoles. [Biederbick et al., 1995] It was found the emergence of intense MDC-fluorescence in the treated cells. The fluorescence vanished when the cells were treated with 3-methyl adenine (3-MA). […] [Seglen et al., 1982]

[3] = tested on: H441 cells; test: Transmission electron microscopy of treated H441 cells (autophagy); format: cell-based, human; conditions: 24 hour treatment, 1 and 10 μM
Experimental: Transmission Electron Microscopy (TEM): TEM was performed after 24 hour treatment with 1 and 10 μM of compound 1 or compound 29 (CLEFMA). The cells were fixed in 0.1M sodium cacodylate buffer containing 4% paraformaldehyde (PFA) and 2% glutaraldehyde for 4 h at room temperature. The samples were post-fixed in 1% osmium tetroxide for 1.5 h and washed with 0.1M sodium cacodylate buffer, followed by dehydration in an ethanol series of 50%, 60%, 75%, 85%, and 95% for 15 minutes each. The cells were washed twice in 100% Ethanol and passed through a series of epon-araldite (6.2 g epon+4.4 g araldite+12.4 g of dodecenyl succinic anhydride+0.8 g N,N-dimethylbenzylamine) solution in ethanol, [Matsko et al., 2005] before embedding the cells in epon-araldite resin. Finally, 100 nm sections were cut using a microtome, and the sections were placed on glow-discharged 300 mesh Copper grids. The ultrasections were stained with Sato's lead (mixture of calcinated lead citrate, lead nitrate, lead acetate and sodium citrate), and observed by a Hitachi H-7600 Transmission Electron Microscope at 2500× (Oklahoma Medical Research Foundation Imaging and core facility, Oklahoma City).

[4] = Solubility in solvents; format: physicochemical
Excerpt: The goal was to synthesize compounds that can be inserted into lipid carriers, such as liposomes. […] The retention of activity by compounds with 12-14 carbon unsaturated a chain modification is encouraging, for it enables the incorporation of these compounds in a lipid carrier system. […] This appears to be the first report where piperidinyl nitrogen of chalcones has been modified with lipid chains.

[5] = tested on: Human lung adenocarcinoma cell line NCI-H441; test: In vitro anti-proliferative activity in H441 cells (hexosaminidase), Example 2; format: cell-based
Experimental: Human lung adenocarcinoma cell line NCI-H441 (ATCC # HTB-174) and normal lung fibroblasts LL-24 (ATCC #CCL-151) were obtained from American Type Culture Collection (Manassas, Va.). The cells were maintained at 37° C. with 5% CO2 in RPMI 1640 medium (Invitrogen, Carlsbad, Calif.). The medium was supplemented with 10% heat-inactivated fetal bovine serum and 50 μg/ml of gentamicin (GIBCO Laboratories, Grand Island, N.Y.). For cell proliferation assay, the cells were seeded in 96-well flat-bottom tissue culture plates at a density of 0.5−1×10^4 cells per well. The cells were allowed to adhere and grow overnight, followed by treatment with CLEFMA or CLEFMA-liposomes. The concentration of CLEFMA was maintained in the range of 0.1-25 μM in 100 μl of RPMI 1640 medium. For comparison, the cells were also treated with 1 and 10 μM natural curcumin and EF24. EF24 is a potent synthetic curcuminoid and a close analog of CLEFMA [Adams et al., 2004]. All solutions of plain drugs were made in dimethylsulfoxide (DMSO). The concentration of DMSO in the treatment medium was maintained at 0.1%. The control wells received equivalent amounts of DMSO or phospholipid-matched control liposomes. Inhibition of cell proliferation was determined by measuring a decrease in hexosaminidase activity as described by Landegren [Landegren, 1984]. Para-nitrophenol-N-acetyl-beta-D-glucosaminide (60 μl per well) was used as the substrate for the hexosaminidase enzyme. The results of hexosaminidase assay were also confirmed by visualization of cultured cells under a microscope.

pIC50 [1]: 4.36
Compound: O=C1C(=Cc2ccccc2F)CNCC1=Cc1ccccc1F [Compound 1, 3,5-Bis(2-fluorobenzylidene)-4-piperidone, reference compound]
autophagosome formation (MDC fluorescence) [2]: appearance of intracellular vacuoles or autophagosomes | change in cellular architecture (TEM) [3]: induced a substantial change in cellular architecture

melting point: 70 to 71 °C
Compound: CCCCCCCCCCCCCCCCCC(=O)N1CC(=Cc2ccccc2F)C(=O)C(=Cc2ccccc2F)C1 [Compound 25, 3,5-Bis-(2-fluorobenzylidene)-1-octadecanoyl-4-piperidone]
solubility in solvents [4]: insoluble in all common solvents except chloroform

Compound: N[C@@H](CCC(=O)N[C@@H](CS)C(=O)NCC(=O)O)C(=O)O [Glutathione, glutathione]
anti-proliferative activity in H441 cells [5]: not anti-proliferative by itself
